Measurements: patent US9744204B1, “Multipath nutritional supplement for memory, cognition, and coordination” (priority 2015, dated 2017)

Columns and labels:
[1] = test system: rats; details: in rats; cited from earlier work
[2] = test system: transgenic Drosophila melanogaster with an inducible tau; experiment: Timed crawl test in transgenic flies with RU-486-inducible human tau; type: in vivo; details: RU-486-treated tau transgenic flies, crawl tests twice each week as flies aged (FIG. 1A, FIG. 2)
Procedure: FIGS. 1A and 1B show typical screens of transgenic Drosophila melanogaster with an inducible tau (FIG. 1A) or Abeta (FIG. 1B), which greatly reduces neural function with age. To assay for fly behavior changes as neural dysfunction progresses, timed crawl tests in which the time it takes individual flies to climb to the top of a test vial were performed twice each week as the flies aged. Select compositions were screened for use on the transgenic flies using the genetically targeted substances believed to act on longevity genes. Different dose concentrations were tested. Two hundred flies (1 fly of each sex in each of 100 vials) for each test condition were used. RU-486 was added to all fly samples except the untreated controls named Untreated (dashed blue line) and the A+P+T Control) about 4-5 days after flies were placed in vials. The first crawl tests were started about 9-10 days after insertion into vials and 5-6 days after RU addition (see FIGS. 1A and 1B). In Untreated Controls (dashed blue line), young flies typically crawl to the top of the vial quickly in 7-10 seconds, while older flies have progressively longer crawl times of up to 40 seconds or more with advancing age. The RU Controls (solid blue line) were treated with RU-486 without any helper substance and therefore have poor crawling tests and die early at 7 weeks (tau in FIG. 1A) or 5 weeks (Abeta in FIG. 1B). […]

[3] = test system: transgenic Drosophila melanogaster with an inducible Abeta; experiment: Timed crawl test in transgenic flies with RU-486-inducible human Abeta; type: in vivo; details: RU-486-treated Abeta transgenic flies (FIG. 1B)
Procedure: To assay for fly behavior changes as neural dysfunction progresses, timed crawl tests in which the time it takes individual flies to climb to the top of a test vial were performed twice each week as the flies aged. Select compositions were screened for use on the transgenic flies using the genetically targeted substances believed to act on longevity genes. Different dose concentrations were tested. Two hundred flies (1 fly of each sex in each of 100 vials) for each test condition were used. RU-486 was added to all fly samples except the untreated controls named Untreated (dashed blue line) and the A+P+T Control) about 4-5 days after flies were placed in vials. The first crawl tests were started about 9-10 days after insertion into vials and 5-6 days after RU addition (see FIGS. 1A and 1B). […] The single substances and substance combinations are shown by the one letter codes: A=Astragalus, P=Pterocarpus, T=L-Theanine, G=Genistein, B=Berberine, L=Lithium, and S=Selenium.
To assay for fly neural functional decline with age as Abeta, tau, or the Park gene is induced, crawl times were used to test substances initially picked from the genomics work.

CCNC(=O)CC[C@H](N)C(=O)O [L-Theanine, gamma-glutamylethylamide]
neuroprotection [1]: neuroprotective

CC12CC3CC(C)(C1)CC(N)(C3)C2 [Mementin, reference compound]
crawl time / delay of neuronal dysfunction induced by human tau expression [2]: works very well

[Se] [Selenium]
crawl time / delay of neuronal dysfunction induced by human tau expression [2]: can protect against dementia
crawl time / protection against dementia induced by human Abeta expression [3]: can protect against dementia
